# Experimental data taken from US9949968B2, “Diarylalkylamine REV-ERB antagonists and their use as medicaments” (FONDAZIONE ISTITUTO ITALIANO DI TECNOLOGIA, priority 2013, dated 2018).
# Counter-ions that a name gives are not always drawn.
# Legend:
# HCT116 = test: Growth inhibition of different tumor cell lines: HCT116; assay type: cell-based; conditions: Homo sapiens, HCT-116; HCT116, colorectal carcinoma, p53 Wild-Type
# From the text: (§1) The CyQUANT® Cell Proliferation Assay Kit (Invitrogen) was used, an assay that has a linear detection range extending from 50 or fewer to at least 250,000 cells.
# (§2) Frozen cells are simply thawed and lysed by addition of a buffer containing the CyQUANT®.
# (§3) Data were collected and analyzed with Prism 5 software to calculate the growth inhibition curve.
# (§4) In particular, values obtained from the DMSO treated cells was set at 100% of growth. Data from treatment of cells with serial dilutions of the compounds were normalized versus the DMSO group and fitted using a four-parameter dose-response curve.
# (§5) GI50 was calculated as the concentration of compound that gives a response half way between bottom and top plateaus of the fitted curve.
# (§6) To test if the growth inhibition activity of the compound of example 1 was limited to breast cancer BT-474 cells, or if it could be generalized in other tumor cells from different tissues, the GI50 of compound of example 1 was tested in several cell lines.
# HuH7 = test: Growth inhibition of different tumor cell lines: HuH7; assay type: cell-based; conditions: Homo sapiens, Huh-7; HuH7, liver hepatocellular carcinoma, p53 mutant protein
# From the text: as §1, §2, §3, §4, §5, §6
# CaCO2 = test: Growth inhibition of different tumor cell lines: CaCO2; assay type: cell-based; conditions: Homo sapiens, Caco-2; CaCO2, colorectal adenocarcinoma, p53 no protein expression
# From the text: as §1, §2, §3, §4, §5, §6
# HCT116-E6 = test: Growth inhibition of different tumor cell lines: HCT116-E6; assay type: cell-based; conditions: HCT116-E6, colorectal carcinoma, p53 no protein expression
# From the text: as §1, §2, §3, §4, §5, §6
# REV-ERB = test: Luciferase-based assay of REV-ERB mediated transcriptional regulation (RevRE/SV40-CLuc reporter in HEK-293 cells); assay type: cell-based; conditions: HEK-293 cells transfected with RevRE reporter and REV-ERBα and/or β; read 24 h post-transfection; read-out: REV-ERB antagonism EC50
# From the text: Luciferase-Base Assay to Assess the Activity of the Compounds on REV-ERB Mediated Transcriptional Regulation
# In order to assess the effect of the compounds of the invention on REV-ERB activity the inventors exploited the ability of REV-ERB to repress gene transcription of a specific DNA cis-element. In fact, the DNA binding domain (DBD) of REV-ERB recognizes specific DNA sequences (called RevREs=Rev-erb Responsive Elements) which contains an AGGTCA motif linked in 5′ to an A/T rich sequence harboring the following consensus: A/T A A/T N T (Harding et al., Mol Cell Biol., 1993; 13:3113).
# Therefore, two repetitions of the RevRE consensus AGAATGTAGGTCA (SEQ ID NO: 13) upstream a SV40 promoter driving the expression of a reporter gene were cloned. As reported, the luciferase enzyme from the ostracod Cypridina noctiluca was adopted. […] Cypridina luciferase (CLuc) is secreted from cells by virtue of its natural signal peptide and its luminescence can be measured from the supernatant of transfected cells. Therefore, cell lysis is not necessary. Secreted CLuc is a very stable protein. Because of this property, the activity measured from the supernatant reflects the amount of protein accumulated up to the time of sampling. Multiple samples can therefore be obtained from the same transfected cells, allowing an easy set-up of time-course experiments. In addition, the direct use of the supernatant makes the system easily prone to automation for High Throughput Screening.
# In order to normalize the experiment for the transfection efficiency, it was used a plasmid containing a SV40 promoter driving the expression of a secreted form of human alkaline phosphatase (SEAP), which enzymatic activity in the supernatant can be measured with chemiluminescence substrates.
# To be able to rule out false-positive, for example due to the interference of the compounds to be tested with the fluorescence and/or chemiluminescence reactions, it was used as control a mutated version of the RevRE (GAGCCCGTAGGTCA) (SEQ ID NO: 14) that is no longer able to bind REV-ERB DBD (Harding et al., Mol Cell Biol., 1993; 13:3113).
# The person skilled in the art will appreciate that an agonist will improve the ability of REV-ERB to repress the transcription, reducing the luminescence signal, while an antagonist will produce the opposite effect.
# For the assay, HEK-293 cells were transfected with the reporter vectors and a plasmid expressing the REV-ERBα and/or β protein. After 6 h from transfection, the medium was replaced with fresh medium containing different doses of the compounds or vehicle (DMSO). After 24 h post-transfection, the supernatant was analyzed for the secreted luciferase and AP activity according to the manufacture instruction. Data normalized as fold activation versus vehicle (DMSO) were fitted using a four-parameter dose-response curve to calculate the EC50 of the different compounds.
# (§7) The different compounds were tested for their ability to inhibit the growth of the tumorigenic breast cancer cells BT-474 and for their antagonistic activity toward REV-ERB transcriptional repression, as described in the biological method section.
# For the cell growth inhibition (GI) the growth inhibition 50 (GI50) and the growth inhibition max (GImax) are reported. […] The bottom plateaus of the curve was used to calculate the Growth Inhibition max (GImax), defined as the percentage of the reduction of cells after 48 h upon a saturating dose of the administered compound. Compounds with a GI50<100 μM were also tested for their antagonistic activity toward REV-ERB. […]
# HepG2 = test: Growth inhibition of different tumor cell lines: HepG2; assay type: cell-based; conditions: Homo sapiens; HepG2, liver hepatocellular carcinoma, p53 Wild-Type
# From the text: as §1, §2, §3, §4, §5, §6
# [1] = test system: tumorigenic breast cancer cells BT-474; test: Growth inhibition assay (CyQUANT Cell Proliferation Assay) in BT-474 cells; assay type: cell-based; conditions: Homo sapiens; for GI50: 48 h, CyQUANT, read-out: Cell Growth Inibition GI50; for Emax: reduction of cells after 48 h at saturating dose, read-out: Cell Growth Inibition GImax
# From the text: Given that REV-ERB target genes include several metabolic regulators, such as Pgc-1α and Nampt, it was decided to test the cell proliferation with a method that is independent from the metabolic state of the cell.
# as §1, §2
# For the assay, tumorigenic breast cancer cells BT-474 cells were seeded at 2500 cells per well in a 96-well plate and incubated over-night at 37° C. Then, fresh medium containing different concentration of the compounds or vehicle (DMSO) was added and cells were growth 48 h at 37° C. Finally, cells were frozen at […] and then processed according to the manufacture instructions. A minimum of triplicate data for each dose was used for the analysis.
# as §3, §4, §5
# The bottom plateaus of the fitted curve was used to calculate the Growth Inhibition max (GImax), defined as the percentage of the reduction of cells after 48 h upon a saturating dose of compound.
# as §7
# For the cell growth inhibition (GI) the growth inhibition 50 (GI50) and the growth inhibition max (GImax) are reported. […] The bottom plateaus of the curve was used to calculate the Growth Inhibition max (GImax), defined as the percentage of the reduction of cells after 48 h upon a saturating dose of the administered compound. Compounds with a GI50<100 μM were also tested for their antagonistic activity toward REV-ERB. For these compounds, the EC50 value is provided, calculated as the concentration of compound that gives a response half between the bottom (expression of the reporter in absence of compound) and the top (expression of the reporter at saturating doses of compound) plateaus of the fitted curves (see biological method section for a description of the reported assay). n.d.=not determined; n.t.=not tested.
# SK-Hep1 = test: Growth inhibition of different tumor cell lines: SK-Hep1; assay type: cell-based; conditions: Homo sapiens; SK-Hep1, liver adenocarcinoma, p53 Wild-Type
# From the text: as §1, §2, §3, §4, §5, §6
# Hep3B = test: Growth inhibition of different tumor cell lines: Hep3B; assay type: cell-based; conditions: Homo sapiens, liver hepatocellular carcinoma, p53 no protein expression
# From the text: as §1, §2, §3, §4, §5, §6
# Colo-205 = test: Growth inhibition of different tumor cell lines: Colo-205; assay type: cell-based; conditions: Homo sapiens; Colo-205, colon, metastatic site: ascites, p53 mutant protein
# From the text: as §1, §2, §3, §4, §5, §6
# WiDr = test: Growth inhibition of different tumor cell lines: WiDr; assay type: cell-based; conditions: Homo sapiens, colon adenocarcinoma, p53 mutant protein
# From the text: as §1, §2, §3, §4, §5, §6
# [2] = test system: endogenous REV-ERB mediated transcription; test: Gene expression analysis (qPCR) of endogenous REV-ERB target genes in BT-474 cells; assay type: cell-based; conditions: 24 h, different doses, qPCR normalised to Gapdh
# Protocol: Gene Expression Analysis of Endogenous REV-ERB Target Genes after Treatment with the Compound of Example 1
# In order to test the effect of the compound of example 1 on the endogenous REV-ERB mediated transcription, BT-474 cells were treated 24 h with different doses of the compound of the example 1 and then processed for RNA extraction.
# Total RNA was extracted with Trizol reagent (Invitrogen) according to the manufacture instruction. One microgram of RNA was retro-transcribed with VILO retrotranscription mix (Invitrogen) and subsequently analyzed by qPCR as described in Grimaldi et al., Cell Metab., 2010; 12:509-520.
# The REV-ERB targets Per1, Bmal1, Nampt, and p21 were analyzed. Gapdh gene was used to normalize the data, while Hprt1 gene was used as independent REV-ERB gene (negative control).
# The results obtained are illustrated in FIG. 1 Values are presented as Relative expression, calculated versus the normalizing gene Gapdh, and shown as mean±SEM from at least 3 independent experiments. The expression of the REV-ERBs independent gene, Hprt1, was used as negative control.
# LXRα = target: T1, LXRα (Homo sapiens, UniProt Q13133); conditions: Trump et al., J. Med. Chem., 2013; cited from earlier work
# T1 sequence (Q13133 1-447): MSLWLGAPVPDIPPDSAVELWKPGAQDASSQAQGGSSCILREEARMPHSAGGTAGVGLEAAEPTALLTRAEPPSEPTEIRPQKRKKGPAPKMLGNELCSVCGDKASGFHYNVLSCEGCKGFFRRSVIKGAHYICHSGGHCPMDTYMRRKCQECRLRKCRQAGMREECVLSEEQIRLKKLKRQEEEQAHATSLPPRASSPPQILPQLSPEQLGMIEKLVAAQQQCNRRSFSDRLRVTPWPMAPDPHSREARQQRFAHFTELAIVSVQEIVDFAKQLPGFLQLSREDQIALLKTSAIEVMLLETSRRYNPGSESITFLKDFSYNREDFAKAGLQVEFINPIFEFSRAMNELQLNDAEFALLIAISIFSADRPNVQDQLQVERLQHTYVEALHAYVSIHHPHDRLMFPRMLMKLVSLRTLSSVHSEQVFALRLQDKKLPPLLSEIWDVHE
# [3] = cited from earlier work; for metabolic clearance: in vivo, Solt et al., Nature, 2012; for pharmacokinetic properties: literature
# REV-ERBα = target: T2, REV-ERBα (Homo sapiens, UniProt P20393); conditions: literature; cited from earlier work
# T2 sequence (P20393 284-614 limits assumed): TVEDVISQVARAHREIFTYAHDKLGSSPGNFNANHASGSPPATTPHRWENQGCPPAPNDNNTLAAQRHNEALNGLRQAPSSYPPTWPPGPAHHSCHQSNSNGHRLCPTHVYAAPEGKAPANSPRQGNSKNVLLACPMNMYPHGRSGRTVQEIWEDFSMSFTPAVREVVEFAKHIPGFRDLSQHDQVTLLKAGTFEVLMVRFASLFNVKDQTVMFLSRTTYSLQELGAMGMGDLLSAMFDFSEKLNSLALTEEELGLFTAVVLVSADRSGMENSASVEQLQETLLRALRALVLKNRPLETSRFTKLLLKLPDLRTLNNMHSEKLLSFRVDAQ
smiles,measurement,setting,value
"CN1CCN(Cc2cc(CNC3(c4ccccc4F)CCCC3)ccc2O)CC1 [Example 1, 4-[[[1-(2-Fluorophenyl)cyclopentyl]amino]methyl]-2-[(4-methylpiperazin-1-yl)methyl]phenol trihydrochloride]",GI50,HCT116,19 µM
same,GI50,HuH7,8 µM
same,GI50,CaCO2,18 µM
same,GI50,HCT116-E6,20 µM
same,EC50,REV-ERB,25 µM
same,GI50,HepG2,10 µM
same,GI50,[1],18 µM
same,Emax,[1],72%
same,GI50,SK-Hep1,50 µM
same,GI50,Hep3B,10 µM
same,GI50,Colo-205,30 µM
same,GI50,WiDr,12 µM
same,"expression of Bmal1 (REV-ERB target, circadian regulation)",[2],induced in a dose-dependent manner
same,"expression of Nampt (REV-ERB target, metabolism)",[2],induced in a dose-dependent manner
same,"expression of Per1 (REV-ERB target, circadian regulation)",[2],induced in a dose-dependent manner
same,"expression of p21 (REV-ERB target, cell cycle)",[2],induced in a dose-dependent manner
same,expression of the REV-ERB independent gene Hprt1 (negative control),[2],negligible effects
CCCCCNC(=O)N1CCC(CN(Cc2ccc(Cl)cc2)Cc2ccc([N+](=O)[O-])s2)C1 (centres unmarked) [SR9011],times more active toward LXRα than REV-ERBs,LXRα,100 times
same,metabolic clearance,[3],high metabolic clearance rates
CCOC(=O)N1CCC(CN(Cc2ccc(Cl)cc2)Cc2ccc([N+](=O)[O-])s2)C1 (centres unmarked) [SR9009],times more active toward LXRα than REV-ERBs,LXRα,100 times
same,metabolic clearance,[3],high metabolic clearance rates
CCOC(=O)C1Cc2ccccc2CN1C(=O)c1ccc(SC)s1 (centres unmarked) [SR8278],effect on interaction of NCoR peptide with REV-ERBα (FRET),REV-ERBα,inhibit REV-ERBα LBD/NcoR interaction
same,pharmacokinetic properties,[3],poor pharmacokinetic properties
CC(C)(C)OC(=O)CN(Cc1ccc(Cl)cc1)Cc1ccc([N+](=O)[O-])s1 [GSK4112],activity on LXRα,LXRα,agonizes
same,effect on interaction of NCoR peptide with REV-ERBα (FRET),REV-ERBα,dose-dependently increase the interaction
same,pharmacokinetic properties,[3],poor pharmacokinetic properties
"CN1CCC(Cc2cccc(CNC3(c4ccc(F)cc4)CCCC3)c2)CC1 [Example 32, 1-(4-Fluorophenyl)-N-[[3-[(1-methyl-4-piperidyl)methyl]phenyl]methyl]cyclopentanamine dihydrochloride]",EC50,REV-ERB,2 µM
same,GI50,[1],1 µM
same,Emax,[1],97%
"CN1CCN(Cc2cc(CNC3(c4ccccc4F)CCCCC3)ccc2O)CC1 [Example 3, 4-[[[1-(2-Fluorophenyl)cyclohexyl]amino]methyl]-2-[(4-methylpiperazin-1-yl)methyl]phenol trihydrochloride]",EC50,REV-ERB,20 µM
same,GI50,[1],14 µM
same,Emax,[1],95%
